O=c1[nH]cc(F)c(=O)[nH]1
solubility (mole fraction)
Details | 293.15 K | 298.15 K | 303.15 K | 308.15 K | 313.15 K | 318.15 K | 323.15 K
in ethanol | 0.00246 | 0.00277 | 0.00307 | 0.0034 | 0.00382 | 0.00411 | 0.00455
in water | 0.00155 | 0.00176 | 0.00195 | 0.00214 | 0.00241 | 0.00278 | 0.00312

— BigSolDB 2.1
